Measurements published in ChEMBL document CHEMBL4622951, “Chemical constituents of Callistemon citrinus from Egypt and their antiausterity activity against PANC-1 human pancreatic cancer cell line” (2020).
Active and inactive are the calls of the source. The rule behind the calls is not given here.

How the values were obtained:
[1] = tested on: PANC-1; experiment: Cytotoxicity against human PANC1 cells in nutrient-deprived medium; format: functional
[2] = tested on: PANC-1; experiment: Induction of apoptosis in human PANC1 cells assessed as decrease in membrane integrity at 1 nM incubated for 24 hrs by ethidium bromide and acridine orange based phase contrast microscopy analysis; format: functional, cell-based
[3] = tested on: PANC-1; experiment: Inhibition of cell migration of human PANC1 cells at 10 uM measured after 12 hrs by wound healing assay (reference value: 73 %); format: functional; conditions: PANC-1, 12 h
[4] = tested on: PANC-1; experiment: Inhibition of cell migration of human PANC1 cells at 20 uM measured after 12 hrs by wound healing assay (reference value: 73 %); format: functional; conditions: PANC-1, 12 h
[5] = tested on: PANC-1; experiment: Inhibition of cell migration of human PANC1 cells at 10 uM measured after 24 hrs by wound healing assay (reference value: 46 %); format: functional; conditions: PANC-1, 24 h
[6] = tested on: PANC-1; experiment: Inhibition of cell migration of human PANC1 cells at 20 uM measured after 24 hrs by wound healing assay (reference value: 46 %); format: functional; conditions: PANC-1, 24 h
[7] = tested on: PANC-1; experiment: Inhibition of cell migration of human PANC1 cells at 10 uM measured after 36 hrs by wound healing assay (reference value: 100 %); format: functional; conditions: PANC-1, 36 h
[8] = tested on: PANC-1; experiment: Inhibition of cell migration of human PANC1 cells at 20 uM measured after 36 hrs by wound healing assay (reference value: 100 %); format: functional; conditions: PANC-1, 36 h
[9] = tested on: PANC-1; experiment: Inhibition of cell migration of human PANC1 cells at 10 uM measured after 48 hrs by wound healing assay (reference value: 100 %); format: functional; conditions: PANC-1, 48 h
[10] = tested on: PANC-1; experiment: Inhibition of cell migration of human PANC1 cells at 20 uM measured after 48 hrs by wound healing assay (reference value: 100 %); format: functional; conditions: PANC-1, 48 h
[11] = tested on: PANC-1; experiment: Inhibition of cell migration of human PANC1 cells measured upto 48 hrs by wound healing assay; format: functional, cell-based
[12] = tested on: PANC-1; experiment: Inhibition of colony formation of human PANC1 cells at 2.5 to 10 uM incubated for 24 hrs followed by compound washout and subsequent incubation for 10 days by crystal violet staining based assay; format: functional, cell-based

`CC1(C)CC[C@]2(CO)CC[C@]3(C)C(=CC[C@@H]4[C@@]5(C)CC[C@H](O)C(C)(C)[C@@H]5CC[C@]43C)[C@@H]2C1` [ERYTHRODIOL] was tested, and the PC50 [1] was 0.2 µM.

`CC(=O)[C@@H]1CC[C@]2(C(=O)O)CC[C@]3(C)[C@H](CC[C@@H]4[C@@]5(C)CC[C@H](O)C(C)(C)[C@@H]5CC[C@]43C)[C@@H]12` [PLATANIC ACID] was tested, and the PC50 [1] was 14.2 µM.

For `C[C@@H]1CC[C@@]23CC[C@]4(C)[C@@](C=C[C@@H]5[C@@]6(C)CC[C@H](O)C(C)(C)[C@@H]6CC[C@]54C)(OC2=O)C3[C@H]1C` (stereo not given in full), the PC50 [1] was 0.4 µM.

For `CC(C)CC(=O)c1c(O)c2c(c([C@H](C3=C(O)C(C)(C)C(=O)C(C)(C)C3=O)C(C)C)c1O)O[C@]1(C)C=C[C@@H](C(C)C)C[C@H]21`, the Activity [2] was “Active”, the inhibition at 10 µM [3] was 87% and the inhibition at 20 µM [4] was 96%. For the same molecule, the inhibition at 10 µM [5] was 76%, the inhibition at 20 µM [6] was 94% and the inhibition at 10 µM [7] was 67%. It also gave an inhibition at 20 µM [8] of 89%, an inhibition at 10 µM [9] of 65% and an inhibition at 20 µM [10] of 80%. For the same molecule, the inhibition [11] was “Dose-dependent effect” and the inhibition [12] was “Active”.

For `COc1cc(C[C@H]2C(=O)OC[C@@H]2Cc2ccc(OC)c(OC)c2)ccc1O` [ARCTIGENIN], the PC50 [1] was 0.7 µM.

Molecule `CC1(C)CC[C@]2(C(=O)O)CC[C@]3(C)C(=CC[C@@H]4[C@@]5(C)CC[C@H](O)C(C)(C)[C@@H]5CC[C@]43C)[C@@H]2C1` [OLEANOLIC_ACID] has a PC50 [1] of 20.5 µM.

With `C=C(C)[C@@H]1CC[C@]2(C(=O)O)CC[C@]3(C)[C@H](CC[C@@H]4[C@@]5(C)CC[C@H](O)C(C)(C)[C@@H]5CC[C@]43C)[C@@H]12` [BETULINIC ACID] the PC50 [1] was 15.2 µM.

With `C[C@H]1[C@H](C)CC[C@]2(C(=O)O)CC[C@]3(C)C(=CC[C@@H]4[C@@]5(C)CC[C@H](O)C(C)(C)[C@@H]5CC[C@]43C)[C@H]12` [URSOLIC ACID] the PC50 [1] was 13.7 µM.

Molecule `C=C(C)[C@@H]1CC[C@]2(CO)CC[C@]3(C)[C@H](CC[C@@H]4[C@@]5(C)CC[C@H](O)C(C)(C)[C@@H]5CC[C@]43C)[C@@H]12` [BETULIN] has a PC50 [1] of 0.7 µM.

`C[C@H]1[C@H](C)CC[C@]2(CO)CC[C@]3(C)C(=CC[C@@H]4[C@@]5(C)CC[C@H](O)C(C)(C)[C@@H]5CC[C@]43C)[C@H]12` [UVAOL] gave a PC50 [1] of 5.2 µM.
